Measured values: patent US10104891B2 (priority 2014, dated 2018)

Key:
Assay type in all cases: in vivo
[1] = test system: Pseudoperonospora cubensis; test: Test 2: control effect against cucumber downy mildew; conditions: control value vs untreated section; for pest or weed control at 4 µg/mL: Pseudoperonospora cubensis, 120 h
Procedure: (§1) A 10% wettable powder created according to the Pharmaceutical Formulation Example 1 was diluted with a Tween20 solution prepared to a concentration of 1/5000, then the compound of formula [1] was prepared to a concentration of 4 ppm. Further, the compound of formula [1] in Test 4 was adjusted to a concentration of 1,000 ppm.
<Test 2 Test of Control Effect Against Cucumber Downy Mildew>
(§2) Test suspension was applied to cucumber at the 2 leaf stage (species: Sagami hanjiro) in an amount of 20 ml per seedling. One day after application, zoospore suspension of Pseudoperonospora cubensis adjusted to a concentration of 1.0×10^4 units/ml was misted/inoculated, and the seedlings were incubated in a moist chamber adjusted to 22° C. for 16 hr. Then, the onset of the disease was induced in the chamber, and the lesion area rate on the leaves 5 days after inoculation was investigated to compute the control value using the formula below. control value={1−onset area rate of the leaves that were applied the test agent/onset area rate of untreated leaves}×100 Computational formula of the control value: […]

[2] = test system: Phytophthora infestans; test: whole plant or invertebrate; conditions: for control value (Test 1): tomato late blight, control value vs untreated section; for pest or weed control at 4 µg/mL: Phytophthora infestans, in Solanum lycopersicum, 96 h, read-out: control value (Test 1)
[3] = test system: Plasmopara viticola; test: Test 3: control effect against grape downy mildew; conditions: control value vs untreated section; for pest or weed control at 4 µg/mL: Plasmopara viticola, 120 h
Procedure: as §1
<Test 3 Test of Control Effect Against Grape Downy Mildew>
as §2, with “grape seedling” for “cucumber at the 2 leaf stage”, “Neomuscat)” for “Sagami hanjiro)”, “Plasmopara viticola” for “Pseudoperonospora cubensis”

Structure (SMILES)	control value (Test 2) [1]	control value (Test 1) [2]	control value (Test 3) [3]	pest or weed control at 4 µg/mL [1]	pest or weed control at 4 µg/mL [2]	pest or weed control at 4 µg/mL [3]
Cc1cc(C)n(CC(=O)N2CCC(c3nc(C4OCc5cccc(OS(C)(=O)=O)c5CO4)cs3)CC2)n1 (stereo not drawn) [Compound 1-105]	100	100	100	–	–	–
Cc1cc(C(F)(F)F)nn1CC(=S)N1CCC(c2nc(C3OCc4cccc(OS(C)(=O)=O)c4CO3)cs2)CC1 (stereo not drawn) [Compound 1-106]	100	100	100	–	–	–
Cc1cc(C(F)(F)F)nn1CC(=S)N1CCC(c2nc(C3OCc4c(F)ccc(OS(C)(=O)=O)c4CO3)cs2)CC1 (stereo not drawn) [Compound 1-107]	100	100	100	–	–	–
COc1ccc(OS(C)(=O)=O)c2c1COC(c1csc(C3CCN(C(=O)Cn4nc(C(F)(F)F)cc4Cl)CC3)n1)OC2 (stereo not drawn) [Compound 1-108]	100	100	100	–	–	–
COc1ccc(OS(C)(=O)=O)c2c1COC(c1csc(C3CCN(C(=O)Cn4nc(Cl)cc4Cl)CC3)n1)OC2 (stereo not drawn) [Compound 1-109, 4-[4-(6-methoxy-9-methylsulfonyloxy-1,5-dihydro-3H-2,4-benzodioxepin-3-yl)-2-thiazolyl]-1-[2-(3,5-dichloro-1H-pyrazole-1-yl)acetyl]piperidine]	–	–	–	100%	100%	100%
COc1ccc(Cl)c2c1COC(c1csc(C3CCN(C(=O)Cn4nc(C(F)(F)F)cc4C(F)(F)F)CC3)n1)OC2 (stereo not drawn) [Compound 1-110]	100	100	100	–	–	–
O=C(Cn1nc(C(F)(F)F)cc1C(F)(F)F)N1CCC(c2nc(C3OCc4cccc(Br)c4CO3)cs2)CC1 (stereo not drawn) [Compound 1-111]	100	100	100	–	–	–
COc1ccc(Cl)c2c1COC(c1csc(C3CCN(C(=O)Cn4nc(C(F)F)cc4C(F)F)CC3)n1)OC2 (stereo not drawn) [Compound 1-112]	100	100	100	–	–	–
O=C(Cn1nc(C(F)(F)F)cc1C(F)(F)F)N1CCC(c2nc(C3OCc4cccc([N+](=O)[O-])c4CO3)cs2)CC1 (stereo not drawn) [Compound 1-114]	100	100	100	–	–	–
COc1ccc(OS(C)(=O)=O)c2c1COC(c1csc(C3CCN(C(=O)Cn4nc(C)cc4C)CC3)n1)OC2 (stereo not drawn) [Compound 1-115, 4-[4-(6-methoxy-9-methylsulfonyloxy-1,5-dihydro-3H-2,4-benzodioxepin-3-yl)-2-thiazolyl]-1-[2-[3,5-dimethyl-1H-pyrazole-1-yl]acetyl]piperidine]	–	–	–	100%	100%	100%
CS(=O)(=O)Oc1ccc(Cl)c2c1COC(c1csc(C3CCN(C(=O)Cn4nc(C(F)F)cc4C(F)F)CC3)n1)OC2 (stereo not drawn) [Compound 1-116]	100	100	100	–	–	–
COc1ccc(OS(C)(=O)=O)c2c1COC(c1csc(C3CCN(C(=O)Cn4nc(C(F)(F)F)cc4C(F)(F)F)CC3)n1)OC2 (stereo not drawn) [Compound 1-117]	100	100	100	–	–	–
CS(=O)(=O)Oc1ccc(Cl)c2c1COC(c1csc(C3CCN(C(=O)Cn4nc(C(F)(F)F)cc4C(F)(F)F)CC3)n1)OC2 (stereo not drawn) [Compound 1-118]	100	100	100	–	–	–
CS(=O)(=O)Oc1cccc2c1COC(c1csc(C3CCN(C(=O)Cn4nc(C(Cl)Cl)cc4C(Cl)Cl)CC3)n1)OC2 (stereo not drawn) [Compound 1-119, 4-[4-(6-methylsulfonyloxy-1,5-dihydro-3H-2,4-benzodioxepin-3-yl)-2-thiazolyl]-1-[2-[3,5-bis(dichloromethyl)-1H-pyrazole-1-yl]acetyl]piperidine]	–	–	–	100%	100%	100%
Cc1cc(C)n(CC(=O)N2CCC(c3nc(C4OCc5c(F)ccc(OS(C)(=O)=O)c5CO4)cs3)CC2)n1 (stereo not drawn) [Compound 1-120]	100	100	100	–	–	–
Cc1cc(OS(C)(=O)=O)c2c(c1C)COC(c1csc(C3CCN(C(=O)Cn4nc(C(F)F)cc4C(F)F)CC3)n1)OC2 (stereo not drawn) [Compound 1-121]	100	100	100	–	–	–
Cc1cc(OS(C)(=O)=O)c2c(c1C)COC(c1csc(C3CCN(C(=O)Cn4nc(C(F)(F)F)cc4C(F)(F)F)CC3)n1)OC2 (stereo not drawn) [Compound 1-122]	100	100	100	–	–	–
CS(=O)(=O)Oc1ccc(Br)c2c1COC(c1csc(C3CCN(C(=O)Cn4nc(C(F)(F)F)cc4C(F)(F)F)CC3)n1)OC2 (stereo not drawn) [Compound 1-123, 4-[4-(6-bromo-9-methylsulfonyloxy-1,5-dihydro-3H-2,4-benzodioxepin-3-yl)-2-thiazolyl]-1-[2-[3,5-bis(trifluoromethyl)-1H-pyrazole-1-yl]acetyl]piperidine]	–	–	–	100%	100%	100%
CS(=O)(=O)Oc1ccc([N+](=O)[O-])c2c1COC(c1csc(C3CCN(C(=O)Cn4nc(C(F)F)cc4C(F)F)CC3)n1)OC2 (stereo not drawn) [Compound 1-124]	100	100	100	–	–	–
CS(=O)(=O)Oc1ccc(Br)c2c1COC(c1csc(C3CCN(C(=O)Cn4nc(C(F)F)cc4C(F)F)CC3)n1)OC2 (stereo not drawn) [Compound 1-125]	100	100	100	–	–	–
O=C(Cn1nc(C(F)F)cc1C(F)F)N1CCC(c2nc(C3OCc4cccc([N+](=O)[O-])c4CO3)cs2)CC1 (stereo not drawn) [Compound 1-126]	100	100	100	–	–	–
Cc1cc(C(F)(F)F)nn1CC(=O)N1CCN(c2nc(C3OCc4cccc(OS(C)(=O)=O)c4CO3)cs2)CC1 (stereo not drawn) [Compound 1-127]	100	100	100	–	–	–
CS(=O)(=O)Oc1ccc([N+](=O)[O-])c2c1COC(c1csc(C3CCN(C(=O)Cn4nc(C(F)(F)F)cc4C(F)(F)F)CC3)n1)OC2 (stereo not drawn) [Compound 1-128]	100	100	100	–	–	–
CS(=O)(=O)Oc1ccc(I)c2c1COC(c1csc(C3CCN(C(=O)Cn4nc(C(F)(F)F)cc4C(F)(F)F)CC3)n1)OC2 (stereo not drawn) [Compound 1-129, 4-[4-(6-iodo-9-methylsulfonyloxy-1,5-dihydro-3H-2,4-benzodioxepin-3-yl)-2-thiazolyl]-1-[2-[3,5-bis(trifluoromethyl)-1H-pyrazole-1-yl]acetyl]piperidine]	–	–	–	100%	100%	100%
CS(=O)(=O)Oc1ccc(I)c2c1COC(c1csc(C3CCN(C(=O)Cn4nc(C(F)F)cc4C(F)F)CC3)n1)OC2 (stereo not drawn) [Compound 1-130]	100	100	100	–	–	–
